In data set [1] the target is CYP450 (isoform not stated) (Homo sapiens, UniProt P04798+P05177+P05181+P08684+P10632+P10635+P11509+P11712+P13584+P20813+P20815+P20853+P24462+P24903+P33260+P33261+P51589+P78329+P98187+Q02928+Q08477+Q16678+Q16696+Q5TCH4+Q6VVX0+Q7Z449+Q8TAV3+Q96SQ9+Q9HB55). Put plainly: in vitro. As to conditions: Liver.
Data set [2] concerns the target T1, Steroid 17-alpha-hydroxylase/17,20 lyase (Homo sapiens, UniProt P05093).
T1 sequence (P05093 whole entry): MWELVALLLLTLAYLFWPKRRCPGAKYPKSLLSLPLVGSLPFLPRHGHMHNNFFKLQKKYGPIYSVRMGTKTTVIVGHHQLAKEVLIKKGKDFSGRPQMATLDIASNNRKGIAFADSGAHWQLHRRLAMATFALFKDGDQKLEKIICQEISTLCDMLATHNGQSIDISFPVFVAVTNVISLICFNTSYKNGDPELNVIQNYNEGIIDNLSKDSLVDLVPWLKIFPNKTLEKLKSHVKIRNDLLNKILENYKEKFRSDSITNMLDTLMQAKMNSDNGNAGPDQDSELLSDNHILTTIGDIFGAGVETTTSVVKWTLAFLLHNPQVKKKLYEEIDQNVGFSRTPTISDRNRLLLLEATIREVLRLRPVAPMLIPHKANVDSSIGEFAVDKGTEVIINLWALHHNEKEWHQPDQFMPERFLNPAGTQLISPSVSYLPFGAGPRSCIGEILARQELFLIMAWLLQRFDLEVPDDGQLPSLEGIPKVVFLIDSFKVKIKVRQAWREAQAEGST
Format: ADME.
Description: Inhibition of human testicular CYP17

Data set [3] concerns the target T2, Cytochrome P450 1B1 (Homo sapiens, UniProt Q16678).
T2 sequence (Q16678 whole entry): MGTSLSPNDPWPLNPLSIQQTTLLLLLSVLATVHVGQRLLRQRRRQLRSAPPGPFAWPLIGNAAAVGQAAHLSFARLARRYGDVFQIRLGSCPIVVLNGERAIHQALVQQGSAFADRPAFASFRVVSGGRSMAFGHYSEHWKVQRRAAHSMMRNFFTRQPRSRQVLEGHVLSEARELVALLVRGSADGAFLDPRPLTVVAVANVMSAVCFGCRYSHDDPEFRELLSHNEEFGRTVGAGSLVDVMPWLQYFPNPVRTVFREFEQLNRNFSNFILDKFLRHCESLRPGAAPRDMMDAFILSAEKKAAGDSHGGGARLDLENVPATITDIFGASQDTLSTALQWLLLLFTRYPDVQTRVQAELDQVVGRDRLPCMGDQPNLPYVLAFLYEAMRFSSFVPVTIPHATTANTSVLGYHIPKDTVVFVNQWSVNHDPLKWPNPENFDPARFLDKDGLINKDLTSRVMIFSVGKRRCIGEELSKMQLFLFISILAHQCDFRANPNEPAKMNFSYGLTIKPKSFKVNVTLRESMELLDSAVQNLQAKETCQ
Description: Inhibition of recombinant human CYP1B1 using 7-ethyl-0-resorufin as substrate incubated for 30 mins in presence of NADPH

The target of data set [4] is Cytochrome P450 2C19 (Homo sapiens, UniProt P33261).
Sequence of Cytochrome P450 2C19 (P33261 whole entry): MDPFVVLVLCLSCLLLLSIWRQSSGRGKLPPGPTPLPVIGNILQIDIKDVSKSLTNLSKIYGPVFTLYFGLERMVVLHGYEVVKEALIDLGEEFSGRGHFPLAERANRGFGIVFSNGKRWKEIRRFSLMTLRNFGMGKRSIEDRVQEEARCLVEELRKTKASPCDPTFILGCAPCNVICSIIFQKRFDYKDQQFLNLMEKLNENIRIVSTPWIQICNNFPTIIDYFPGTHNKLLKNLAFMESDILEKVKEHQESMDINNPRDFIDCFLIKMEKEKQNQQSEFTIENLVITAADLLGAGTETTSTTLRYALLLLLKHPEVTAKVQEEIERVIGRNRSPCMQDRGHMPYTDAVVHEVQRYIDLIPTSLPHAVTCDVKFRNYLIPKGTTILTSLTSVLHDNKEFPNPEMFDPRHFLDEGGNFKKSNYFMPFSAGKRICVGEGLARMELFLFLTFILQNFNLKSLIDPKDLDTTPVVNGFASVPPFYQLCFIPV
Description: Inhibition of CYP2C19 in human liver microsomes incubated in presence NADPH
Data set [5] deals with T3, Aromatase (Homo sapiens, UniProt P11511).
T3 sequence (P11511 whole entry): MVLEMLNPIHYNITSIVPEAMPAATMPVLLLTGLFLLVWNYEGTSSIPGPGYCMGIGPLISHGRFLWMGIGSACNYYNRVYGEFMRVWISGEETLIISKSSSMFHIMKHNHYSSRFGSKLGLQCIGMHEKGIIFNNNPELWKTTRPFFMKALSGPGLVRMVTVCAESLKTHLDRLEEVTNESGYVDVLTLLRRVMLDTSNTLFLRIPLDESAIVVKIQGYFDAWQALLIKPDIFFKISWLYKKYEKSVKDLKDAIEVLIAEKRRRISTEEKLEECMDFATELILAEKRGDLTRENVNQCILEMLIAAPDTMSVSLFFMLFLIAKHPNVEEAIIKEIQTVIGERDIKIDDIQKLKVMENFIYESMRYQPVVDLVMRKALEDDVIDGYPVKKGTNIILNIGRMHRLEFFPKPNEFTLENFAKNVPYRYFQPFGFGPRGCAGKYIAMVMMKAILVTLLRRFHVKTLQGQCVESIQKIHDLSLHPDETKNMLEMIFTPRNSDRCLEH
It is filed as cell-based, JEG-3.

Results on 6 molecules are retold here after ChEMBL document CHEMBL5375941, “Combating breast cancer with non-steroidal aromatase inhibitors (NSAIs): Understanding the chemico-biological interactions through comparative SAR/QSAR study” (Eur J Med Chem, 2017).

The molecule `Oc1ccc2c(c1)CCC1C(c3ccncc3)C21` (stereo unspecified) gave a half-inhibitory concentration (IC50) in data set [1] of 2810 µM.
For the molecule `c1ccc2c(c1)CCC1C(c3ccncc3)C21` (stereo unspecified), the half-maximal inhibitory concentration (IC50) in data set [2] was 39.5 µM.
In data set [3], `COc1ccc(/C=C/c2c(CC=C(C)C)c(O)cc(O)c2CC=C(C)C)cc1` registered a negative-log IC50 (pIC50) of 13.573.
`CCn1cc(C(c2ccc(Cl)cc2)n2ccnn2)c2cc(Br)ccc21` (stereo unspecified) gave a half-maximal inhibitory concentration (IC50) in data set [4] of 10 µM.
The molecule `N#Cc1ccccc1-c1cccc(Cn2cncn2)c1` gave an IC50 in data set [5] of 0.00701 µM.
Turning to `Oc1cccc2c1CCC1C(c3ccncc3)C21` (stereo unspecified), 6.05 µM corresponded to half-maximal inhibition in data set [1] (IC50).
